Results: ChEMBL document CHEMBL4130596, “Adding a Hydrogen Bond May Not Help: Naphthyridinone vs Quinoline Inhibitors of Macrophage Migration Inhibitory Factor” (ACS Med Chem Lett, 2017)
≈ marks a conversion by molar mass, not a printed value.

Assay: Aqueous solubility of the compound in Britton-Robinson buffer after 48 hrs at pH 6.5 by UV-vis spectrophotometry based shake flask method
Assay type: physicochemical

Molecule `O=C(O)Cn1ccc2ccc(-c3cn(-c4ccc(O)c(F)c4)nn3)nc2c1=O` has a solubility thermodynamic at 48 h of 288 µg/mL (≈ 755 µM).
